Non-standard residues stand in square brackets, D forms with d. Residues, ends and D or L forms follow the SMILES beside them. Cha = N[C@@H](CC1CCCCC1)C(=O)O
What was measured:
Details in all cases: read-out: Log 1/IC50 (converted)
[1] = species: Mus musculus; experiment: (§1) Inhibitory activity contractions of electrically stimulated mouse vas deferens was determined; assay type: functional, organism-based
[2] = species: Cavia porcellus; experiment: Inhibitory activity for contractions of electrically stimulated guinea pig ileum was determined; assay type: functional, organism-based
[3] = molecular target: Delta-type opioid receptor (Mus musculus, UniProt P32300); experiment: as §1; assay type: functional, tissue-based
Chain of Delta-type opioid receptor (P32300 whole entry): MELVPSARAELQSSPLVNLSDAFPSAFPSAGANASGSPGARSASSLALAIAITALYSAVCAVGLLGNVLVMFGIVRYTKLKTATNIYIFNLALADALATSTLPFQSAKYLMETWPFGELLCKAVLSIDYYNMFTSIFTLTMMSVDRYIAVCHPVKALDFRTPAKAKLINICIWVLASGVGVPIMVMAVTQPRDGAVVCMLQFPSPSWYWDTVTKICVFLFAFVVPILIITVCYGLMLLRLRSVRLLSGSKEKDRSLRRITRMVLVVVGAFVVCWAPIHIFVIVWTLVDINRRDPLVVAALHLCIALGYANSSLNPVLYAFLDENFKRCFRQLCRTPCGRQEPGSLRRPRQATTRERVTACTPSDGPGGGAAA

CC(C)C[C@H](NC(=O)[C@H](Cc1ccccc1)NC(=O)CNC(=O)[C@H](C)NC(=O)[C@@H](N)Cc1ccc(O)cc1)C(N)=O
IC50 [1]: 0.00955 µM
IC50 [2]: 0.0112 µM

CSCC[C@H](NC(=O)[C@H](Cc1ccccc1)NC(=O)CNC(=O)[C@H](C)NC(=O)[C@@H](N)Cc1ccc(O)cc1)C(N)=O
IC50 [2]: 0.0115 µM

C[C@H](NC(=O)[C@@H](N)Cc1ccc(O)cc1)C(=O)NCC(=O)N[C@@H](Cc1ccc([N+](=O)[O-])cc1)C(=O)N[C@@H](CCC(C)(C)C)C(N)=O
IC50 [2]: 0.00191 µM

COc1ccc(C[C@H](N)C(=O)N[C@@H](C)C(=O)NCC(=O)N[C@@H](Cc2ccc([N+](=O)[O-])cc2)C(=O)N[C@@H](CCSC)C(N)=O)cc1
IC50 [3]: 0.00316 µM
IC50 [2]: 0.00229 µM

C[C@H](NC(=O)[C@@H](N)Cc1ccc(O)cc1)C(=O)NCC(=O)N[C@@H](Cc1ccc([N+](=O)[O-])cc1)C(=O)N[C@@H](CC12CC3CC(CC(C3)C1)C2)C(N)=O
IC50 [3]: 0.0204 µM
IC50 [2]: 0.0038 µM

CC(C)C[C@H](NC(=O)[C@H](Cc1ccc([N+](=O)[O-])cc1)NC(=O)CNC(=O)[C@H](C)NC(=O)[C@@H](N)Cc1ccc(O)cc1)C(N)=O
IC50 [2]: 0.00316 µM

COc1ccc(C[C@H](N)C(=O)N[C@@H](C)C(=O)NCC(=O)N[C@@H](CC2CCCCC2)C(=O)N[C@@H](CCSC)C(N)=O)cc1 (H-Y(Me)AG[Cha]M-NH2)
IC50 [2]: 0.0724 µM

C[C@H](NC(=O)[C@@H](N)Cc1ccc(O)cc1)C(=O)NCC(=O)N[C@@H](Cc1ccccc1)C(=O)N[C@H](C(N)=O)C(C)(C)C (HELM PEPTIDE1{Y.A.G.F.[CC(C)(C)[C@H](N[*:1])C(=O)[*:2]].[am]}$$$$V2.0)
IC50 [3]: 0.00977 µM
IC50 [2]: 0.0117 µM

C[C@H](NC(=O)[C@@H](N)Cc1ccc(O)cc1)C(=O)NCC(=O)N[C@@H](Cc1ccccc1)C(=O)N[C@@H](CC12CC3CC(CC(C3)C1)C2)C(N)=O (HELM PEPTIDE1{Y.A.G.F.[O=C([C@H](CC12CC3CC(CC(C3)C1)C2)N[*:1])[*:2]].[am]}$$$$V2.0)
IC50 [3]: 0.0501 µM
IC50 [2]: 0.00603 µM

CC(C)C[C@H](NC(=O)[C@H](CC1CCCCC1)NC(=O)CNC(=O)[C@H](C)NC(=O)[C@@H](N)Cc1ccc(O)cc1)C(N)=O (HELM PEPTIDE1{Y.A.G.[Cha].L.[am]}$$$$V2.0)
IC50 [2]: 0.0912 µM

CC(C)C[C@H](NC(=O)[C@H](CC12CC3CC(CC(C3)C1)C2)NC(=O)CNC(=O)[C@H](C)NC(=O)[C@@H](N)Cc1ccc(O)cc1)C(N)=O (HELM PEPTIDE1{Y.A.G.[O=C([C@H](CC12CC3CC(CC(C3)C1)C2)N[*:1])[*:2]].L.[am]}$$$$V2.0)
IC50 [3]: 2.95 µM
IC50 [2]: 1 µM

— ChEMBL document CHEMBL1122188, “A quantitative structure-activity relationship study of the inhibitory action of a series of enkephalin-like peptides in the guinea pig ileum and mouse vas deferens bioassays” (J Med Chem, 1982)
